# Measurements published in PubChem BioAssay AID330 (DTP/NCI, 2004).
# Values joined by “and” are separate entries in the source; they are usually repeats but may differ in a detail not shown here. Equal entries are not always repeated. Inconclusive results and toxic doses are left out.
# System: P388 leukemia ip, CD2F1 mice, survival T/C
# Experiment: NCI In Vivo Anticancer Drug Screen. Data for tumor model P388 Leukemia (intraperitoneal) in CD2F1 (CDF1) mice
# Conditions: endpoint: median survival time, higher = longer survival
# Procedure, shortened: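 Mice carrying the transplanted tumor received test compound or vehicle. Survival was recorded in each group, and the value is the treated-group measurement divided by that of the vehicle-treated control group.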
# [1] = dose: 50.0 mg/kg/injection, schedule: Q01DX009 (ip), vehicle: saline
# [2] = dose: 100.0 mg/kg/injection, schedule: Q01DX009 (ip), vehicle: saline
# [3] = dose: 200.0 mg/kg/injection, schedule: Q01DX009 (ip), vehicle: saline
# [4] = dose: 400.0 mg/kg/injection, schedule: Q01DX009 (ip), vehicle: saline
# [5] = dose: 60.0 mg/kg/injection, schedule: Q01DX005 (ip), vehicle: saline with Tween-80
# [6] = dose: 120.0 mg/kg/injection, schedule: Q01DX005 (ip), vehicle: saline with Tween-80
# [7] = dose: 240.0 mg/kg/injection, schedule: Q01DX005 (ip), vehicle: saline with Tween-80
# [8] = dose: 12.5 mg/kg/injection, schedule: Q01DX005 (ip), vehicle: Klucel (hydroxypropylcellulose) (HPC)
# [9] = dose: 25.0 mg/kg/injection, schedule: Q01DX005 (ip), vehicle: Klucel (hydroxypropylcellulose) (HPC)
# [10] = dose: 50.0 mg/kg/injection, schedule: Q01DX005 (ip), vehicle: Klucel (hydroxypropylcellulose) (HPC)
# [11] = dose: 100.0 mg/kg/injection, schedule: Q01DX005 (ip), vehicle: Klucel (hydroxypropylcellulose) (HPC)
# [12] = dose: 50.0 mg/kg/injection, schedule: Q01DX009 (ip), vehicle: Klucel (hydroxypropylcellulose) (HPC)
# [13] = dose: 100.0 mg/kg/injection, schedule: Q01DX009 (ip), vehicle: Klucel (hydroxypropylcellulose) (HPC)
# [14] = dose: 200.0 mg/kg/injection, schedule: Q01DX009 (ip), vehicle: Klucel (hydroxypropylcellulose) (HPC)
# [15] = dose: 25.0 mg/kg/injection, schedule: Q01DX009 (ip), vehicle: Klucel (hydroxypropylcellulose) (HPC)
# [16] = dose: 100.0 mg/kg/injection, schedule: Q01DX009 (ip), vehicle: saline with Tween-80
# [17] = dose: 200.0 mg/kg/injection, schedule: Q01DX009 (ip), vehicle: saline with Tween-80
# [18] = dose: 100.0 mg/kg/injection, schedule: Q04DX003 (ip), vehicle: saline with Tween-80
# [19] = dose: 200.0 mg/kg/injection, schedule: Q04DX003 (ip), vehicle: saline with Tween-80
# [20] = dose: 400.0 mg/kg/injection, schedule: Q04DX003 (ip), vehicle: saline with Tween-80
# [21] = dose: 100.0 mg/kg/injection, schedule: Q01DX001 (ip), vehicle: Klucel (hydroxypropylcellulose) (HPC)
# [22] = dose: 200.0 mg/kg/injection, schedule: Q01DX001 (ip), vehicle: Klucel (hydroxypropylcellulose) (HPC)
# [23] = dose: 400.0 mg/kg/injection, schedule: Q01DX001 (ip), vehicle: Klucel (hydroxypropylcellulose) (HPC)
smiles,measurement,setting,value
N#C[C@H](OC1OC(COC2OC(CO)C(O)C(O)C2O)C(O)C(O)C1O)c1ccccc1 (some centres not stated),T/C,"dose: 6.25 mg/kg/injection, schedule: Q01DX009 (oral), vehicle: water",91 % of control
same,T/C,"dose: 12.5 mg/kg/injection, schedule: Q01DX009 (oral), vehicle: saline",98 % of control
same,T/C,"dose: 12.5 mg/kg/injection, schedule: Q01DX009 (oral), vehicle: water",95 % of control
same,T/C,"dose: 25.0 mg/kg/injection, schedule: Q01DX009 (ip), vehicle: saline",100 % of control
same,T/C,"dose: 25.0 mg/kg/injection, schedule: Q01DX009 (ip), vehicle: water",105 % of control
same,T/C,"dose: 25.0 mg/kg/injection, schedule: Q01DX009 (oral), vehicle: saline",115 % of control
same,T/C,"dose: 25.0 mg/kg/injection, schedule: Q01DX009 (oral), vehicle: water",93 % of control
same,T/C,[1],100 % of control and 112 % of control
same,T/C,"dose: 50.0 mg/kg/injection, schedule: Q01DX009 (ip), vehicle: water",97 % of control
same,T/C,"dose: 50.0 mg/kg/injection, schedule: Q01DX009 (oral), vehicle: saline",118 % of control
same,T/C,"dose: 50.0 mg/kg/injection, schedule: Q01DX009 (oral), vehicle: suspension in saline",104 % of control
same,T/C,"dose: 50.0 mg/kg/injection, schedule: Q01DX009 (oral), vehicle: water",96 % of control
same,T/C,[2],104 % of control and 107 % of control
same,T/C,"dose: 100.0 mg/kg/injection, schedule: Q01DX009 (ip), vehicle: water",100 % of control
same,T/C,"dose: 100.0 mg/kg/injection, schedule: Q01DX009 (oral), vehicle: saline",101 % of control
same,T/C,"dose: 100.0 mg/kg/injection, schedule: Q01DX009 (oral), vehicle: suspension in saline",100 % of control and 107 % of control
same,T/C,"dose: 100.0 mg/kg/injection, schedule: Q01DX009 (oral), vehicle: water",105 % of control and 93 % of control
same,T/C,[3],100 % of control and 109 % of control
same,T/C,"dose: 200.0 mg/kg/injection, schedule: Q01DX009 (ip), vehicle: water",101 % of control
same,T/C,"dose: 200.0 mg/kg/injection, schedule: Q01DX009 (oral), vehicle: saline",100 % of control
same,T/C,"dose: 200.0 mg/kg/injection, schedule: Q01DX009 (oral), vehicle: water",102 % of control and 104 % of control
same,T/C,[4],102 % of control and 109 % of control
same,T/C,"dose: 400.0 mg/kg/injection, schedule: Q01DX009 (ip), vehicle: water",100 % of control
same,T/C,"dose: 400.0 mg/kg/injection, schedule: Q01DX009 (oral), vehicle: suspension in saline",100 % of control
same,T/C,"dose: 800.0 mg/kg/injection, schedule: Q01DX009 (ip), vehicle: saline",102 % of control and 108 % of control
same,T/C,"dose: 800.0 mg/kg/injection, schedule: Q01DX009 (ip), vehicle: water",102 % of control
Cc1nc2ccccc2c(=O)n1-c1nc2ccccc2s1,T/C,[5],92 % of control
same,T/C,[6],89 % of control and 90 % of control
same,T/C,[7],103 % of control
Nc1ncnc2c1ncn2C1SC(CO)C(O)C1O (configuration not stated),T/C,[8],92 % of control
same,T/C,[9],100 % of control and 92 % of control
same,T/C,[10],99 % of control and 96 % of control
same,T/C,[11],104 % of control and 100 % of control
same,T/C,"dose: 200.0 mg/kg/injection, schedule: Q01DX005 (ip), vehicle: Klucel (hydroxypropylcellulose) (HPC)",101 % of control and 92 % of control
C1CC2(CC3(C1)SCCS3)SCCS2,T/C,[12],94 % of control
same,T/C,[13],101 % of control
same,T/C,[14],101 % of control
C=C1CCOC2(C(O)C(C)(O)CO)NC(=O)C1(O)NC2=O (configuration not stated),T/C,[1],108 % of control
same,T/C,[2],118 % of control
same,T/C,[3],103 % of control
same,T/C,[4],108 % of control
Cc1ccc(NC(=O)c2cc3ccccc3cc2O)c(C)c1.Cc1ccc(NC(=O)c2cc3ccccc3cc2O)c(C)c1.[Mn+2],T/C,[1],87 % of control
same,T/C,[2],86 % of control
same,T/C,[3],86 % of control
CC12CCC(=O)N1c1ccccc1N2 (configuration not stated),T/C,[5],98 % of control
same,T/C,[6],94 % of control
same,T/C,[7],102 % of control
COc1c(CO)c2c(c(OC)c1OC)-c1ccc(OC)c(=O)cc1[C@@H](NC(C)=O)CC2,T/C,[15],160 % of control
same,T/C,[12],185 % of control
O=c1c(O)c(-c2ccccc2)c1=O,T/C,[9],98 % of control
same,T/C,[10],100 % of control
same,T/C,[11],98 % of control
NC(CCCCNC1CCCCC1)C(=O)O (configuration not stated),T/C,[16],106 % of control
same,T/C,[17],105 % of control
same,T/C,"dose: 400.0 mg/kg/injection, schedule: Q01DX009 (ip), vehicle: saline with Tween-80",100 % of control
O=S(CF)c1ccc(Cl)cc1 (configuration not stated),T/C,[18],93 % of control
same,T/C,[19],102 % of control
same,T/C,[20],107 % of control
CC1=CC(OCc2ccccc2)OC1=O (configuration not stated),T/C,"dose: 100.0 mg/kg/injection, schedule: Q04DX002 (ip), vehicle: Klucel (hydroxypropylcellulose) (HPC)",101 % of control
same,T/C,"dose: 200.0 mg/kg/injection, schedule: Q04DX002 (ip), vehicle: Klucel (hydroxypropylcellulose) (HPC)",102 % of control
same,T/C,"dose: 400.0 mg/kg/injection, schedule: Q04DX002 (ip), vehicle: Klucel (hydroxypropylcellulose) (HPC)",104 % of control
NC(C(=O)O)C(CC(=O)O)c1ccccc1 (configuration not stated),T/C,"dose: 50.0 mg/kg/injection, schedule: Q01DX009 (ip), vehicle: saline with Tween-80",88 % of control
same,T/C,"dose: 50.0 mg/kg/injection, schedule: Q01DX009 (ip), vehicle: suspension in saline",96 % of control
same,T/C,[16],94 % of control
same,T/C,"dose: 100.0 mg/kg/injection, schedule: Q01DX009 (ip), vehicle: suspension in saline",89 % of control
same,T/C,[18],100 % of control
same,T/C,[17],95 % of control
same,T/C,"dose: 200.0 mg/kg/injection, schedule: Q01DX009 (ip), vehicle: suspension in saline",88 % of control
same,T/C,[19],108 % of control
same,T/C,[20],97 % of control
COC1/C=C\OC2(C)Oc3c(C)c(O)c4c(O)c(c5[nH]cnc5c4c3C2=O)NC(=O)/C(C)=C\C=C\C(C)C(O)C(C)C(O)C(C)C(OC(C)=O)C1C (configuration not stated),T/C,[15],102 % of control
same,T/C,[12],102 % of control
same,T/C,[13],100 % of control
same,T/C,[14],108 % of control
O=C1OC(=O)C2=C1CCC2,T/C,"dose: 12.5 mg/kg/injection, schedule: Q01DX009 (ip), vehicle: distilled water + Tween-80",100 % of control
same,T/C,"dose: 25.0 mg/kg/injection, schedule: Q01DX009 (ip), vehicle: distilled water + Tween-80",100 % of control
same,T/C,"dose: 50.0 mg/kg/injection, schedule: Q01DX009 (ip), vehicle: distilled water + Tween-80",91 % of control
COC(=O)C1CCC(c2ccccc2)(c2ccccc2)C1=O.COC(=O)C1CCC(c2ccccc2)(c2ccccc2)C1=O.[Cu] (configuration not stated),T/C,[21],100 % of control
same,T/C,[22],100 % of control
same,T/C,[23],102 % of control
CCCC(O)CN (configuration not stated),T/C,"dose: 100.0 mg/kg/injection, schedule: Q04DX003 (ip), vehicle: saline",103 % of control
same,T/C,"dose: 200.0 mg/kg/injection, schedule: Q04DX003 (ip), vehicle: saline",107 % of control
O=C(O)CSCCCCCCSCC(=O)O,T/C,[1],103 % of control
same,T/C,[2],103 % of control
same,T/C,[3],103 % of control
CCN(CC)CCNc1cc(Nc2ccc([N+](=O)[O-])cc2)ccc1OC,T/C,"dose: 12.5 mg/kg/injection, schedule: Q01DX005 (ip), vehicle: saline with Tween-80",108 % of control
same,T/C,"dose: 25.0 mg/kg/injection, schedule: Q01DX005 (ip), vehicle: saline with Tween-80",106 % of control
same,T/C,"dose: 50.0 mg/kg/injection, schedule: Q01DX005 (ip), vehicle: saline with Tween-80",99 % of control
same,T/C,"dose: 200.0 mg/kg/injection, schedule: Q01DX005 (ip), vehicle: saline with Tween-80",87 % of control
OCCN(CCO)CC(O)c1cc(-c2ccccc2)nc2ccccc12 (configuration not stated),T/C,[8],103 % of control
same,T/C,[9],94 % of control
same,T/C,[10],102 % of control and 103 % of control
same,T/C,[11],110 % of control
O=C1CN(CCN2CC(=O)N(CN3CCOCC3)C(=O)C2)CC(=O)N1CN1CCOCC1,T/C,"dose: 12.5 mg/kg/injection, schedule: Q01DX005 (ip), vehicle: water",108 % of control and 111 % of control and 119 % of control
O=C1NC(Cc2ccccc2)C(=O)N2CSCC12 (configuration not stated),T/C,[21],94 % of control
same,T/C,[22],99 % of control
same,T/C,[23],105 % of control
